Experimental data reported in the supplement of paper PMC12137928.
Where a name gives a salt, the structure may show the parent alone.

Tested on: HCT116
Details: 72 h
How it was run: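 In 1536-well plates, 250 HCT116 cells per well were seeded and left for 5 h to attach. Luminescence from CellTiter-Glo was set against vehicle (0%) and positive control (-100%), and pattern correction was applied. IC50 and maximal efficacy come from four-parameter Hill fitting.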

| SMILES | IC50 cell viability (ICRF193 0 nM) [µM] | IC50 cell viability (ICRF193 200 nM) [µM] |
| --- | --- | --- |
| CCCc1nc(C(C)(C)O)c(C(=O)OCc2oc(=O)oc2C)n1Cc1ccc(-c2ccccc2-c2nnn[nH]2)cc1 [Olmesartan medoxomil] | > 45.8 | > 45.8 |
| CCCc1nc(C(C)(C)O)c(C(=O)O)n1Cc1ccc(-c2ccccc2-c2nnn[nH]2)cc1 [Olmesartan] | > 45.8 | > 45.8 |
| CN(C)CC/C=C1/c2ccccc2COc2ccc(CC(=O)O)cc21 [Olopatadine hydrochloride] | > 45.8 | > 45.8 |
| Cc1[nH]c(=O)c(C#N)cc1-c1ccc2nccn2c1 [Olprinone] | > 45.8 | > 45.8 |
| COC(=O)N[C@H](C(=O)N1CCC[C@H]1C(=O)Nc1ccc([C@@H]2CC[C@@H](c3ccc(NC(=O)[C@@H]4CCCN4C(=O)[C@@H](NC(=O)OC)C(C)C)cc3)N2c2ccc(C(C)(C)C)cc2)cc1)C(C)C [Ombitasvir] | > 45.8 | > 45.8 |
| OCCN1CCN(CCCN2c3ccccc3C=Cc3ccccc32)CC1 [Opipramol dihydrochloride] | > 45.8 | > 45.8 |
| CCCCCCCCCCC[C@@H](C[C@@H]1OC(=O)[C@H]1CCCCCC)OC(=O)[C@H](CC(C)C)NC=O [Orlistat] | > 45.8 | > 45.8 |
| O=C(O)c1cc(=O)[nH]c(=O)[nH]1 [Orotic acid] | > 45.8 | > 45.8 |
| O=C(O)c1nc(=O)[nH]c(=O)[nH]1 [Oteracil] | > 45.8 | > 45.8 |
| C[C@]12CC[C@H]3[C@@H](CCC4=C(O)C(=O)CC[C@@H]43)[C@@H]1CC[C@@H]2OC(=O)CCC1CCCC1 [Oxabolone cipioncate] | > 45.8 | > 45.8 |
| O=C(O)C(=O)O.[NH-][C@@H]1CCCC[C@H]1[NH-].[Pt+2] [Oxaliplatin] | > 45.8 | > 45.8 |
| O=C(O)CCc1nc(-c2ccccc2)c(-c2ccccc2)o1 [Oxaprozin] | > 45.8 | > 45.8 |
| CC[C@H]1C[C@H]2[C@@H]3CCC4=CC(=O)CC[C@@H]4[C@H]3CC[C@]2(C)[C@H]1O [Oxendolone] | > 45.8 | > 45.8 |
| CC[N+]1(C)[C@@H]2CC(OC(=O)[C@H](CO)c3ccccc3)C[C@H]1[C@@H]1O[C@@H]12 (some centres undefined) [Oxitropium Bromide] | > 45.8 | > 45.8 |
| O=C(O)/C=C/c1ccc(Cn2ccnc2)cc1 [Ozagrel hydrochloride] | > 45.8 | > 45.8 |
| Cc1cc(O)ccc1C(C)(C)C [P-T-BUTYL-M-CRESOL] | > 45.8 | > 45.8 |
| CC1(C)S[C@@H]2[C@H](NC(=O)COc3ccccc3)C(=O)N2[C@H]1C(=O)O [PENICILLIN V POTASSIUM] | > 45.8 | > 45.8 |
| N#Cc1ccc2c(c1)N(CCCN1CCC(O)CC1)c1ccccc1S2 [PERICIAZINE] | > 45.8 | > 45.8 |
| CC1(C)C(C=C(Cl)Cl)C1C(=O)OCc1cccc(Oc2ccccc2)c1 (centres undefined) [PERMETHRIN] | > 45.8 | > 45.8 |
| CN1CCC2=C(C1)C(c1ccccc1)c1ccccc12 (centres undefined) [PHENINDAMINE] | > 45.8 | > 45.8 |
| CC(C)(O)[C@@H]1[C@H]2OC(=O)[C@@H]1[C@]1(O)C[C@H]3O[C@]34C(=O)O[C@H]2[C@]14C [PICROTIN] | > 45.8 | > 45.8 |
| CC(N/C(=N\C#N)Nc1ccncc1)C(C)(C)C (centres undefined) [PINACIDIL] | > 45.8 | > 45.8 |
| CCCOc1cc(N)ccc1C(=O)OCCN(CC)CC [PROPOXYCAINE HYDROCHLORIDE] | > 45.8 | > 45.8 |
| C=C/C=C\CC1=C(C)[C@@H](OC(=O)[C@@H]2[C@@H](/C=C(\C)C(=O)OC)C2(C)C)CC1=O [PYRETHRIN II] | > 45.8 | > 45.8 |
| Cc1nc2n(c(=O)c1CCN1CCC(c3noc4cc(F)ccc34)CC1)CCCC2O (centres undefined) [Paliperidone] | > 45.8 | > 45.8 |
| O=C1c2cccc3c2[C@H](CCC3)CN1[C@@H]1CN2CCC1CC2 [Palonosetron hydrochloride] | > 45.8 | > 45.8 |
| CC(=O)O[C@H]1C[C@@H]2CC[C@@H]3[C@H](CC[C@@]4(C)[C@H]3C[C@H]([N+]3(C)CCCCC3)[C@@H]4OC(C)=O)[C@@]2(C)C[C@@H]1[N+]1(C)CCCCC1 [Pancuronium bromide] | > 45.8 | > 45.8 |
| COc1ccnc(C[S+]([O-])c2nc3cc(OC(F)F)ccc3[nH]2)c1OC (centres undefined) [Pantoprazole] | > 45.8 | > 45.8 |
| CC(C)(CO)[C@@H](O)C(=O)NCCC(=O)O [Pantothenic acid] | > 45.8 | > 45.8 |

Results, then the molecule that gave them:

| IC50 cell viability (ICRF193 0 nM) [µM] | IC50 cell viability (ICRF193 200 nM) [µM] | SMILES |
| --- | --- | --- |
| > 45.8 | > 45.8 | COc1ccc(CC(C)(C)NC[C@H](O)c2cc(O)cc3c2OCC(=O)N3)cc1 [Olodaterol] |
| > 45.8 | > 45.8 | O=C(O)c1cc(/N=N/c2ccc(O)c(C(=O)O)c2)ccc1O [Olsalazine sodium] |
| > 45.8 | > 45.8 | COc1ccc2[nH]c([S+]([O-])Cc3ncc(C)c(OC)c3C)nc2c1 (centres undefined) [Omeprazole] |
| > 45.8 | > 45.8 | Cc1nccn1CC1CCc2c(c3ccccc3n2C)C1=O (centres undefined) [Ondansetron] |
| > 45.8 | > 45.8 | C[C@@H]1CN(c2c(F)c(F)c3c(=O)c(C(=O)O)cn(C4CC4)c3c2F)C[C@H](C)N1 [Orbifloxacin] |
| > 45.8 | > 45.8 | COc1cc(C)c(Cc2cnc(N)nc2N)cc1OC [Ormetoprim] |
| > 45.8 | > 45.8 | Cc1ccccc1C(OCCN(C)C)c1ccccc1 (centres undefined) [Orphenadrine dihydrogen citrate] |
| > 45.8 | > 45.8 | CCOC(=O)C1=C[C@@H](OC(CC)CC)[C@H](NC(C)=O)[C@@H](N)C1 [Oseltamivir Phosphate] |
| > 45.8 | > 45.8 | OCCOc1ccc(/C(=C(/CCCl)c2ccccc2)c2ccccc2)cc1 [Ospemifene] |
| > 45.8 | > 45.8 | Cc1onc(-c2ccccc2)c1C(=O)N[C@@H]1C(=O)N2[C@@H]1SC(C)(C)[C@@H]2C(=O)O [Oxacillin sodium] |
| > 45.8 | > 45.8 | C[N+]1(CC2COC(c3ccccc3)(C3CCCCC3)O2)CCCCC1 (centres undefined) [Oxapium iodide] |
| > 45.8 | > 45.8 | CCN(CC)CCOCCOC(=O)C(CC)(CC)c1ccccc1 [Oxeladin Citrate] |
| > 45.8 | > 45.8 | C=CCOc1ccccc1OCC(O)CNC(C)C (centres undefined) [Oxprenolol hydrochloride] |
| > 45.8 | > 45.8 | CCN(CC)CC#CCOC(=O)C(O)(c1ccccc1)C1CCCCC1 (centres undefined) [Oxybutynin chloride] |
| > 45.8 | > 45.8 | Cc1cc(C(C)(C)C)c(O)c(C)c1CC1=NCCN1 [Oxymetazoline hydrochloride] |
| > 45.8 | > 45.8 | COc1cc2[nH]c(C)c(CCN3CCN(c4ccccc4)CC3)c2cc1OC [Oxypertine hydrochloride] |
| > 45.8 | > 45.8 | CN1CCCN=C1COC(=O)C(O)(c1ccccc1)C1CCCCC1 (centres undefined) [Oxyphencyclimine hydrochloride] |
| > 45.8 | > 45.8 | CC[N+](C)(CC)CCOC(=O)C(O)(c1ccccc1)C1CCCCC1 (centres undefined) [Oxyphenonium bromide] |
| > 45.8 | > 45.8 | CN(C)[C@@H]1C(O)=C(C(N)=O)C(=O)[C@@]2(O)C(O)=C3C(=O)c4c(O)cccc4[C@@](C)(O)[C@H]3[C@H](O)[C@@H]12 [Oxytetracycline] |
| > 45.8 | > 45.8 | CC[C@H](C)[C@@H]1NC(=O)[C@H](Cc2ccc(O)cc2)NC(=O)[C@@H](N)CSSC[C@@H](C(=O)N2CCC[C@H]2C(=O)N[C@@H](CC(C)C)C(=O)NCC(N)=O)NC(=O)[C@H](CC(N)=O)NC(=O)[C@H](CCC(N)=O)NC1=O [Oxytocin] |
| > 45.8 | > 45.8 | CCC1(C)OC(=O)N(C)C1=O (centres undefined) [PARAMETHADIONE] |
| > 45.8 | > 45.8 | NC[C@@H]1O[C@H](O[C@H]2[C@@H](O)[C@H](O[C@@H]3[C@@H](O)[C@H](N)C[C@H](N)[C@H]3O[C@H]3O[C@H](CO)[C@@H](O)[C@H](O)[C@H]3N)O[C@@H]2CO)[C@H](N)[C@@H](O)[C@@H]1O [PAROMOMYCIN SULFATE] |
| > 45.8 | > 45.8 | C[C@]12C=CC(=O)C=C1CC[C@@H]1[C@@H]2[C@@H](O)C[C@@]2(C)[C@H]1CC[C@]2(O)C(=O)COC(=O)CCC(=O)O [PREDNISOLONE HEMISUCCINATE] |
| > 45.8 | > 45.8 | CCCCC(=O)O[C@]1(C(=O)COC(C)=O)CC[C@H]2[C@@H]3CCC4=CC(=O)C=C[C@]4(C)[C@H]3[C@@H](O)C[C@@]21C [PREDNISOLONE VALERATE ACETATE] |
| > 45.8 | > 45.8 | CC(C)OC(=O)[C@H](C)N[P@@](=O)(OC[C@H]1O[C@@H](n2ccc(=O)[nH]c2=O)[C@](C)(F)[C@@H]1O)Oc1ccccc1 [PSI-7976] |
| > 45.8 | > 45.8 | CCCCCCCCCCCCCCCC(=O)OC1CCCn2c1nc(C)c(CCN1CCC(c3noc4cc(F)ccc34)CC1)c2=O (centres undefined) [Paliperidone Palmitate] |
| > 45.8 | > 45.8 | NCCC(O)(P(=O)(O)O)P(=O)(O)O [Pamidronic acid] |
| > 45.8 | > 45.8 | O=C(O)c1cc2ccccc2c(Cc2c([O-])c(C(=O)O)cc3ccccc23)c1[O-].[Na+].[Na+] [Pamoic acid disodium salt] |
